Experimental data taken from a melting point compilation (Tetko et al.; mined from patent text by program, amines drawn as free bases though some values may be those of a salt).

Compared with `CCCc1cc(C(=O)NCc2ccccn2)ccc1OC(C(=O)NS(=O)(=O)c1ccc(C(C)C)cc1)c1ccc2c(c1)OCO2` (centres undefined), `COC(=O)Cc1ccc(OCCNC(=O)C2Cc3ccccc3N2S(=O)(=O)c2ccc(-c3ccc(F)cc3)cc2)c(Cl)c1` (centres undefined) is lower in melting point: 168 to 170 °C for the first, 68 to 76 °C for the second.

Compared with `Nc1cc(C(=O)NNC(=O)Cc2cccc(O)c2)ccc1O`, `COC(=O)c1cc(C(=O)c2c(C)c(NC(=O)c3cccc(O)c3)c3ccccn23)ccc1N` is higher in melting point: 264 to 265 °C for the first, 278 °C for the second.

First: CNC(=NO)Nc1ccccc1
Second: CNC(=O)N(O)C(C)C#Cc1ccccc1 (centres undefined)
The melting point of the first is lower: 95 to 96 °C for the first, 136 to 137 °C for the second.

Compared with `CC(C)c1cn2ccccc2c1S(=O)(=O)c1ccc(OCCCN2CCN(C(c3ccccc3)c3ccccc3)CC2)cc1`, `O=C1C(=O)N(CCCCN2CCN(C(c3ccccc3)c3ccccc3)CC2)c2ccc(F)cc21` is lower in melting point: 170 °C for the first, 144 °C for the second.

Compared with `O=C(O)c1ccsc1-c1sccc1C(=O)O`, `CC(=O)SCC(Cc1ccccc1)C(=O)Nc1cccc(C(=O)O)c1C` (centres undefined) is lower in melting point: 194 to 198 °C for the first, 162 to 163 °C for the second.

First: O=C1C(=O)c2ccc(Br)cc2C2=C1SCC1(CCN(C(=O)c3cccc(Cl)c3)CC1)O2
Second: Cc1ccc(CC2CCN(C(=O)c3cc(=O)c4cc(O)ccc4[nH]3)CC2)cc1
The melting point of the first is lower: 135 to 140 °C for the first, 152 °C for the second.

Compared with `N#Cc1ccc(CN(c2ccc(O)cc2)n2ccnc2)cc1`, `N#CC(=Cc1ccc(CBr)cc1)S(=O)(=O)c1ccccc1` is lower in melting point: 150 °C for the first, 120 to 122 °C for the second.

Compared with `O=[N+]([O-])c1ccc2[nH]cc(Cc3ccc(F)cc3)c2c1`, `N#Cc1c(Cl)c2cc(F)ccc2n(Cc2ccc(F)cc2)c1=O` is higher in melting point: 142 to 144 °C for the first, 236 °C for the second.

First: CNc1ncc(-c2cc(Cl)cc(Cl)c2Cl)c(N)n1
Second: O=c1[nH]ncc2c1c(O)nc1cc(Cl)cc(Cl)c12
The melting point of the first is lower: 155 to 157 °C for the first, greater than 350 °C for the second.

First: Cc1c(C(=O)O)ccc(S(C)(=O)=O)c1-c1ccc(S(C)(=O)=O)cc1
Second: COc1ccc(S(=O)(=O)N(CC(=O)O)Cc2ccccc2N)cc1
The melting point of the first is higher: 214 to 215 °C for the first, 145 to 147 °C for the second.

First: O=C(O)Cc1cc2c(s1)-c1ccccc1OC2C1=CCCC=C1 (centres undefined)
Second: BrCc1cc(-c2ccccc2)cs1
The melting point of the first is higher: 105 to 110 °C for the first, 87 to 88.5 °C for the second.

Compared with `C=C(c1ccccc1N1CCCCC1)C(C(N)=O)c1ccc(C(=O)O)cc1` (centres undefined), `CCOC(=O)c1ccc(NC(C)c2ccccc2)cc1` (centres undefined) is lower in melting point: 158 to 160 °C for the first, 88 °C for the second.

First: CC(C)(C)c1ccc(Sc2cccc3c2C(=O)c2c(Sc4ccc(C(C)(C)C)cc4)ccc(Sc4ccc(C(C)(C)C)cc4)c2C3=O)cc1
Second: CS(=O)(=O)c1ccc(-c2nn(Cc3ccccc3)c(=O)cc2-c2ccc(F)cc2)cc1
The melting point of the first is higher: 228 to 229 °C for the first, 188 °C for the second.

First: NC(=O)CCN1CCN(C2Cc3cc(Cl)ccc3Sc3cc(F)ccc32)CC1 (centres undefined)
Second: CCn1cc(C(=O)O)c(=O)c2cc(F)c(N3CCN(Cc4ccc([N+](=O)[O-])cc4)CC3)c(F)c21
The melting point of the first is lower: 179 to 182 °C for the first, 241 to 242 °C for the second.

First: NC(=O)C(O)c1ccsc1 (centres undefined)
Second: Nc1sc2c(c1C(=O)c1ccsc1)CCCC2
The melting point of the first is lower: 114 to 120 °C for the first, 133 to 135 °C for the second.

First: CCCCCC1(Cl)Cc2cc(OCC(=O)O)c(Cl)c(Cl)c2C1=O (centres undefined)
Second: CCCC(=O)c1ccc(O)c(OC)c1
The melting point of the first is higher: 122 to 124 °C for the first, 40 to 41 °C for the second.

Compared with `CC1(C)CCC(C)(C)c2cc(COc3cccc(C(=O)O)c3-c3ccc(CCO)cc3)ccc21`, `CC(/C=C/C1=C(c2ccc3c(c2)C(C)(C)CCC3(C)C)CCCC1)=C\C(=O)O` is lower in melting point: 201 to 203 °C for the first, 198 to 199 °C for the second.

First: Cc1cn(-c2cc(NC(=O)c3ccc(Cl)c(C#Cc4ccc(NC5CCC5)nn4)c3)cc(C(F)(F)F)c2)cn1
Second: COc1ccc(-c2cc(C(F)(F)F)ccc2/C=C/C(=O)Nc2ccc3[nH]ccc3c2)cn1
The melting point of the first is higher: 225 to 227 °C for the first, 219 to 221 °C for the second.

First: N#CCCNC(=O)c1cccc(-c2cccc3cn(Cc4cccc(C(F)(F)F)c4)nc23)c1
Second: O=S(=O)(Nc1cccc(CCOCc2ccc(-c3ccc(Cl)c(Cl)c3)cc2)c1)C(F)(F)F
The melting point of the first is higher: 174 to 175 °C for the first, 74 to 75 °C for the second.

First: Cc1oc(-c2ccccc2)nc1CC=Cc1ccc(CC2SC(=O)NC2=O)cc1 (centres undefined)
Second: Cc1cc(=O)c(-c2ccc(Cl)c(Cl)c2)c(-c2ccccc2)o1
The melting point of the first is lower: 55 to 57 °C for the first, 104 °C for the second.

First: CCCCCCCCCCCCCCCCCCOc1ccc2ccccc2c1
Second: O=C(O)CCCCCCCCCN1C(=O)c2ccccc2C1=O
The melting point of the first is higher: 64 to 68 °C for the first, 58 to 60 °C for the second.

First: COc1ccc(C(=O)Nc2c(Cl)cncc2Cl)cc1OC1COCC1OCSC (centres undefined)
Second: CCOC(=O)CSc1nc(Cl)cc(NCc2ccc(C)cc2C)n1
The melting point of the first is higher: 195 to 198 °C for the first, 95 to 98 °C for the second.

First: O=C1OC(=Nc2ccc(Cl)cc2F)C2=C1CCCC2
Second: O=C1NCCc2c1c1cccc3c1n2CCO3
The melting point of the first is lower: 81 to 84 °C for the first, 298 to 300 °C for the second.

First: COCCN(CCOC)CC1=Cc2ccsc2S(=O)(=O)N1Cc1ccc(OC)cc1
Second: Cc1nc(-n2[nH]c(C)c(Cc3ccc(Cl)cc3)c2=O)sc1C(=O)NCc1cccnc1
The melting point of the first is lower: 75 to 77 °C for the first, 215 to 217 °C for the second.

First: CC(=O)c1cccc(NC(=O)NC2N=C(c3ccccc3F)c3cccc(C)c3N(CC(=O)N3CC4CCC(CC4)C3)C2=O)c1 (centres undefined)
Second: O=C(CCC(=O)N1CCC(c2ccc(Cl)cc2)CC1)c1ccc2c(c1)CCN(Cc1ccccc1)CC2
The melting point of the first is higher: greater than 250 °C for the first, 133 to 134 °C for the second.

First: COc1ccc(N2CCN(c3c(C)c(C)c4c(c3C)CC(C)O4)CC2)c(OC)c1 (centres undefined)
Second: CC(C)(C)c1cc(C(=O)N2CCN(c3ccc(N)cc3)CC2)cc(C(C)(C)C)c1O
The melting point of the first is lower: 142 to 144 °C for the first, 221 to 222 °C for the second.

Compared with `Nc1ccc(CC2CCN(S(=O)(=O)c3ccccc3)CC2)cc1`, `O=c1nc(NC(=S)Nc2ccccc2)c(F)cn1S(=O)(=O)c1ccccc1` is higher in melting point: 158 °C for the first, 205 to 208 °C for the second.

First: CCc1cc(NC(=O)N2CCN(c3cc(C)cc(C)c3)CC2)c(N2CCNCC2)nc1C
Second: CCN(C)C(=O)c1cnn(C)c1C(=O)Nc1ccn2nc(N3CCOCC3)nc2c1
The melting point of the first is lower: 100 to 102 °C for the first, 201 to 203 °C for the second.

First: Cc1ccc2c(Br)c(F)cc([N+](=O)[O-])c2n1
Second: O=C(O)Cc1cccc([N+](=O)[O-])c1[N+](=O)[O-]
The melting point of the first is lower: 135 to 137 °C for the first, 209 to 215 °C for the second.

Compared with `CCCNC(=O)c1nc(-c2ccccc2)c(-c2ccc(=O)n(CC)n2)s1`, `O=C(Nc1cccc2c(=O)cc(-c3nnnn3O)oc12)c1ccc(OCCCCc2ccccc2)cc1` is higher in melting point: 106 to 108 °C for the first, 238 to 240 °C for the second.

First: COC(=O)c1cc2cc(C(=O)c3cccc(C(C)C#N)c3)sc2s1 (centres undefined)
Second: Cc1cc2c(c(C)c1NC(=O)CC(C)(C)C)C(c1ccc(C(C)C)cc1)CS2 (centres undefined)
The melting point of the first is higher: 163 °C for the first, 151 to 152 °C for the second.

Compared with `O=C(C1CN(S(=O)(=O)c2ccc3cc(Br)ccc3c2)CCN1C(=O)C1CCN(c2ccncc2)CC1)N1CCSCC1` (centres undefined), `COc1ccc(NC(=O)CN2CC(C)N(C(c3ccc(F)cc3)c3ccc(F)cc3)CC2C)cc1` (centres undefined) is lower in melting point: 250 to 258 °C for the first, 131 °C for the second.

First: CCCCS(=O)(=O)Oc1c(C(=O)OC(C)C)sc(C(=O)OC(C)C)c1C
Second: CC(C)c1ccc(C(=O)Cc2c(Cl)cccc2Cl)c(C(C)C)c1OS(N)(=O)=O
The melting point of the first is lower: 59 to 61 °C for the first, 203 to 205 °C for the second.

First: Oc1cc(-c2ncc(C(F)(F)F)cc2F)c(F)cc1Cl
Second: CSc1noc(C2CC2)c1C(=O)c1ccc(C(F)(F)F)cc1S(C)(=O)=O
The melting point of the first is lower: 94 to 96 °C for the first, 145 to 146 °C for the second.

Compared with `CCNC(=O)c1c([Si](C)(C)C)ccc(C#C[Si](C)(C)C)c1Cl`, `COC(=O)CCc1conc1-c1ccc(Cl)cc1` is lower in melting point: 131 to 132 °C for the first, 56 to 57 °C for the second.

First: CC(C)N(CC(=O)c1ccc(F)cc1)c1ccccc1
Second: CC(O)COc1ccc(Oc2cccc(F)c2)cc1 (centres undefined)
The melting point of the first is higher: 78 to 81 °C for the first, 37 to 39 °C for the second.

First: CN(CCCS(=O)CCCC(F)(F)C(F)(F)F)CCOc1ccc(C2=C(c3ccccc3)CCCc3cc(O)ccc32)cc1 (centres undefined)
Second: COC(=O)C[C@H](O)C[C@H](O)C=Cc1c(-c2ccc(F)cc2)c(-c2ccccc2)c(C(=O)Nc2cccc(S(N)(=O)=O)c2)n1C(C)C
The melting point of the first is lower: 63 to 65 °C for the first, 85 to 87 °C for the second.

First: Cc1c(C)c2c(c(C)c1O)CC[C@@](C)(CCCl)O2
Second: CCCN(CC)c1cc(C)nc(Oc2c(C)cc(C)cc2C)c1C
The melting point of the first is lower: 111 °C for the first, 167 to 169 °C for the second.

First: CCOCc1nc2c(N)nc3cc(-c4cccnc4)ccc3c2n1C[C@@H]1COC(C)(C)O1
Second: Cc1cc(-n2c(C)nc3ccccc32)cc2ccc(=O)[nH]c12
The melting point of the first is lower: 155 to 156 °C for the first, 307 to 313 °C for the second.

First: COc1c(CS(=O)(=O)C2=NOC(C)(C)C2)c(C(F)(F)F)nn1C
Second: COc1ccc(N=C(NC(=O)Nc2ccc(-c3ncn(-c4ccc(C(F)(F)F)cc4)n3)cc2)SCOC(=O)C(C)C)c(C)c1
The melting point of the first is lower: 113 to 114 °C for the first, 160 to 164 °C for the second.

First: C=CCOc1ccc2ccc(=O)oc2c1
Second: COC(=O)NC=Cc1ccc(O)cc1
The melting point of the first is lower: 165 °C for the first, 169 to 170 °C for the second.

First: CC(C)c1cccc(C(C)C)c1NC(=O)NCC1(c2cc(C(F)(F)F)cc(C(F)(F)F)c2)CCCC1
Second: CC(C)c1cc(-c2ccc(F)c3ccccc23)nc(N(S(C)(=O)=O)S(C)(=O)=O)n1
The melting point of the first is higher: 165 to 168 °C for the first, 144 °C for the second.

Compared with `CN1CCN(c2cc3nc(C(C)(C)C)sc3cc2[N+](=O)[O-])CC1`, `NC1CCN(c2ccc([N+](=O)[O-])cn2)CC1` is lower in melting point: 132 to 135 °C for the first, 115 to 117 °C for the second.

Compared with `O=[N+]([O-])c1c(Cl)nc2c(c1Cl)CCCC2`, `O=C(O)CC/C=C/c1nn(-c2ccccc2)c2c1CCC2` is higher in melting point: 63 to 64 °C for the first, 122 to 125 °C for the second.

First: O=C(NC(Cc1c[nH]cn1)C(=O)NC(Cc1ccc(OCc2ccccc2)cc1)C(=O)NCCOCc1ccccc1)OCc1ccccc1 (centres undefined)
Second: NCCCCCCC(=O)Nc1cccc(C(=O)NCCC(=O)O)c1
The melting point of the first is lower: 161 to 165 °C for the first, 236 °C for the second.

First: N#Cc1cc(/C=C/C(c2cc(Cl)c(Cl)c(Cl)c2)C(F)(F)F)ccc1-n1cnc(N(C(=O)C2CC2)C(=O)C2CC2)n1 (centres undefined)
Second: Cc1ncccc1Cn1c(CO)nc(C(C)C)c1Sc1cc(Cl)cc(Cl)c1
The melting point of the first is lower: 104 to 107 °C for the first, 127 °C for the second.

Compared with `O=C1CC(c2cccc(-n3ccnn3)c2)=Nc2cc(O)c(-c3ccc(F)cc3)cc2N1`, `O=C1C[C@@H]2CCC(c3ccccc3)=C[C@@H]2O1` (relative stereo) is lower in melting point: greater than 250 °C for the first, 90 to 92 °C for the second.
